Activity calls are given as the source filed them. No cut-off for these calls is given here.
Tests used:
C6 = experiment: cells; conditions: Rattus norvegicus, C6, 24 h, read-out: Activity
Description: Neuroprotective activity against Abeta1-42 peptide-induced neurotoxicity in rat C6 cells assessed as cell viability at 100 uM after 24 hrs by MTT assay

NG108-15 [1] = experiment: cells; conditions: Murinae, NG108-15, read-out: Activity
Description: Neuroprotective activity against H2O2-induced oxidative stress in mouse/rat NG108-15 cells assessed as cell viability at 100 uM incubated for 2 hrs prior to H2O2 challenge for 2 hrs by MTT assay

NG108-15 [2] = experiment: Neuroprotective activity against H2O2-induced oxidative stress in mouse/rat NG108-15 cells assessed as increase in cell viability at 1 uM incubated for 2 hrs prior to H2O2 challenge for 2 hrs by MTT assay; format: functional, cell-based
Mus musculus [3] = experiment: Inhibition of scopolamine-induced cognitive deficit in ICR mouse assessed as spontaneous alternation behaviour at 50 micromol/kg, ip administered 1 hr prior to scopolamine challenge measured after 30 mins by Y-maze test (reference value: 40.22 +/-3.54%); format: functional; parameters: scale not given: the % may be the effect or the level left
Mus musculus [4] = experiment: Inhibition of scopolamine-induced cognitive deficit in ICR mouse assessed as time spent swimming in Q1 quadrant at 25 micromol/kg, ip administered 1 hr prior to scopolamine challenge measured after 30 mins by morris water maze test (reference value: 11.76 +/-0.49s); format: functional
Mus musculus [5] = experiment: Inhibition of scopolamine-induced cognitive deficit in ICR mouse assessed as spontaneous alternation behaviour at 25 micromol/kg, ip administered 1 hr prior to scopolamine challenge measured after 30 mins by Y-maze test (reference value: 40.22 +/-3.54%); format: functional; parameters: scale not given: the % may be the effect or the level left
Mus musculus [6] = experiment: Inhibition of scopolamine-induced cognitive deficit in ICR mouse assessed as time spent swimming in Q1 quadrant at 50 micromol/kg, ip administered 1 hr prior to scopolamine challenge measured after 30 mins by morris water maze test (reference value: 11.76 +/-0.49s); format: functional
Cholinesterase = Cholinesterase (Homo sapiens, UniProt P06276)
Description: Inhibition of BuChE in human serum using butyrylthiocholine iodide as substrate measured every 30s for 5 mins by Ellman's spectrophotometric method

NG108-15 [7] = experiment: Neuroprotective activity against H2O2-induced oxidative stress in mouse/rat NG108-15 cells assessed as increase in cell viability at 10 uM incubated for 2 hrs prior to H2O2 challenge for 2 hrs by MTT assay; format: functional, cell-based

Sequence of Cholinesterase (P06276 whole entry): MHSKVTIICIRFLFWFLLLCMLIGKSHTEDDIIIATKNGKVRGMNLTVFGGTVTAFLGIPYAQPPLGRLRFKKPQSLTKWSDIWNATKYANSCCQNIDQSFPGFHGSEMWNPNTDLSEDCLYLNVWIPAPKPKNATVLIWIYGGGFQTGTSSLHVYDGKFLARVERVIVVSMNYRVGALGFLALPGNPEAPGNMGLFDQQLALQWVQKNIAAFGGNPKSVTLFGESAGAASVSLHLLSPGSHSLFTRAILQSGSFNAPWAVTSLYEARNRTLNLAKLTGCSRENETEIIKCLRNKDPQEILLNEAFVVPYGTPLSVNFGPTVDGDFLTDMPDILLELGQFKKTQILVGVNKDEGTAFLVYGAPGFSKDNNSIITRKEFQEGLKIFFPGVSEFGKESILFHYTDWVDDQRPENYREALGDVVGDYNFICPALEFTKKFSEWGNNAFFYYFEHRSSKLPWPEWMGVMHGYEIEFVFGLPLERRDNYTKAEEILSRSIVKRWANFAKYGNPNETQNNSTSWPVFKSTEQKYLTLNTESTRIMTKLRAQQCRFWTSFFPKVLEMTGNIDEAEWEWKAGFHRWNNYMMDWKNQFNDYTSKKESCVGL

Row | SMILES | viability at 100 µM (C6) [%] | viability at 100 µM (NG108-15 [1]) [%] | Activity (NG108-15 [2]) | Activity (Mus musculus [3]) [%] | Time (Mus musculus [4]) [s] | Activity (Mus musculus [5]) [%] | Time (Mus musculus [6]) [s] | IC50 (Cholinesterase) [µM] | Activity (NG108-15 [7])
1 | COc1ccc2c(c1)[nH]c1c(CC=C(C)C)c(O)c(/C=N/CCCNc3c4c(nc5ccccc35)CCCC4)cc12 | 63 | 74.7 | Active | – | – | – | – | – | –
2 | COc1ccc2c(c1)[nH]c1c(CC=C(C)C)c(O)c(/C=N/CCCCCNc3c4c(nc5ccccc35)CCCC4)cc12 | 66.3 | 78.4 | Active | 59.8 | 17.21 | 53.88 | 17.86 | 52.1 | –
3 | COc1ccc2c(c1)[nH]c1c(CC=C(C)C)c(O)c(C=O)cc12 | – | 65.5 | – | – | – | – | – | > 100 | –
4 | CC(C)=CCc1c(O)c(C=O)cc2c1[nH]c1ccccc12 [HEPTAPHYLLINE] | – | 59.8 | – | – | – | – | – | > 100 | –
5 | CC(C)=CCc1c(O)c(/C=N/CCCCCNc2c3c(nc4ccccc24)CCCC3)cc2c1[nH]c1ccccc12 | 59.4 | 68.8 | – | – | – | – | – | 19.4 | Active

From ChEMBL document CHEMBL3124749, “Synthesis, biological evaluation and molecular modeling study of novel tacrine-carbazole hybrids as potential multifunctional agents for the treatment of Alzheimer's disease” (Eur J Med Chem, 2014)
